Measurements published in US20240218022A1, “ANTI-VISTA MACROCYCLIC PEPTIDES AND COMPOSITIONS” (BRISTOL-MYERS SQUIBB COMPANY, priority 2022, published 2024).
Read-outs that look alike come from different tables or passages of the source. Starred links: 1 amine or outer side, 2 acyl side, 3 side chain; linkers in the order of their positions; H or OH if unused. Positions of bridges follow the written chain, without caps; N, C: chain ends. Non-standard residues stand in square brackets, D forms with d. Residues, ends and D or L forms follow the SMILES beside them. ξ: configuration not given here. Phe(2,4-F2) = N[C@@H](Cc1ccc(F)cc1F)C(=O)O; Phe(3-Me) = Cc1cccc(C[C@H](N)C(=O)O)c1; 2Nal = N[C@@H](Cc1ccc2ccccc2c1)C(=O)O; βAsp = O=C(O)[C@H](CC(=O)[*:2])N[*:1]; NMeY = CN[C@@H](Cc1ccc(O)cc1)C(=O)O; Cit = NC(=O)NCCC[C@H](N)C(=O)O; Gly(cPr) = N[C@H](C(=O)O)C1CC1; Ahp(2) = CCCCC[C@H](N)C(=O)O; NMeNle = CCCC[C@H](NC)C(=O)O; NHexGly = CCCCCCNCC(=O)O; Nle = CCCC[C@H](N)C(=O)O; Aun = NCCCCCCCCCCC(=O)O; AEEA = NCCOCCOCC(=O)O; ξS = NC(CO)C(=O)O

Target: T1, mouse VISTA (mVISTA) (Mus musculus, UniProt Q9D659)
T1 construct: expressed in transfected cells; host or cells: Human embryonic kidney 293T cells
T1 sequence (Q9D659 33-308): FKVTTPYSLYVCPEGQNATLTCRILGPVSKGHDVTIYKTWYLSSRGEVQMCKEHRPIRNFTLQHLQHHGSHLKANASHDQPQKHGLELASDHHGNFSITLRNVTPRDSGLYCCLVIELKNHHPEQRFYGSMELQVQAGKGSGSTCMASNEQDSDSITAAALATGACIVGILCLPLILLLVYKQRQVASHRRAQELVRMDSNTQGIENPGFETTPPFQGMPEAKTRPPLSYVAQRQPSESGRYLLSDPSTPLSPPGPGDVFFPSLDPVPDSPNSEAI
Assay: Cell-Based Binding High-Content Assay For mVISTA (HC CBA mVISTA)
Conditions: read-out: HC CBA mVISTA IC50
Outline: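 mVISTA-293T, 4,000 cells/well; cpd ± washout step; biotin-peptide 2 nM final, 30 min RT; SA-Alexa 647 30 min; formaldehyde/Hoechst fix; HCS imaging; 4PL IC50.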

Compound	IC50	further results
CCCCCCN1CC(=O)N[C@@H](Cc2ccc(O)cc2)C(=O)N[C@@H](CCCC)C(=O)N[C@@H](CC(N)=O)C(=O)N[C@@H](CCCNC(=N)N)C(=O)N(C)[C@@H](Cc2ccc(O)cc2)C(=O)N[C@@H](CCCCC)C(=O)N2CCC[C@H]2C(=O)N[C@@H](C(C)C)C(=O)N[C@@H](CC(=O)O)C(=O)N[C@H](C(=O)NCC(=O)O)CSCC(=O)N[C@@H](Cc2ccccc2)C(=O)N[C@@H](Cc2c[nH]c3ccccc23)C(=O)N[C@@H](CC(=O)O)C1=O [Example 1411] ({CH2CO}-FWD[NHexGly]Y[Nle]NR[NMeY][Ahp(2)]PVDCG-OH; thioether N-14)	0.0186 µM	
CCCCCCN1CC(=O)N[C@@H](Cc2ccc(O)cc2)C(=O)N[C@@H](CCCC)C(=O)N[C@@H](CC(N)=O)C(=O)N[C@@H](CCCNC(N)=O)C(=O)N[C@@H](CC(C)C)C(=O)N[C@@H](CCCCC)C(=O)N2CCC[C@H]2C(=O)N[C@@H](C(C)C)C(=O)N[C@@H](CC(=O)O)C(=O)N[C@H](C(=O)NCC(=O)O)CSCC(=O)N[C@@H](Cc2cccc(C)c2)C(=O)N[C@@H](Cc2c[nH]c3ccccc23)C(=O)N[C@@H](CC(=O)O)C1=O [compound 1423] ({CH2CO}-[Phe(3-Me)]WD[NHexGly]Y[Nle]N[Cit]L[Ahp(2)]PVDCG-OH; thioether N-14)		IC50 (the 19th table, scaffold drawing 22): 0.0167 µM
CCCCCCN1CC(=O)N[C@@H](Cc2ccc(O)cc2)C(=O)N[C@@H](CCCCC)C(=O)N[C@@H](CC(N)=O)C(=O)N[C@@H](CCCNC(=N)N)C(=O)N(C)[C@@H](CCCC)C(=O)N[C@@H](CCCCC)C(=O)N2CCC[C@H]2C(=O)N[C@@H](C(C)C)C(=O)N[C@@H](CC(=O)O)C(=O)N[C@H](C(=O)NCC(=O)O)CSCC(=O)N[C@@H](Cc2ccc3ccccc3c2)C(=O)N[C@@H](Cc2ccc(F)cc2F)C(=O)N[C@@H](CC(=O)O)C1=O [compound 1201] ({CH2CO}-[2Nal][Phe(2,4-F2)]D[NHexGly]Y[Ahp(2)]NR[NMeNle][Ahp(2)]PVDCG-OH; thioether N-14)	0.0119 µM	
CCCCCCN1CC(=O)N[C@@H](Cc2ccc(O)cc2)C(=O)N[C@@H](CCCC)C(=O)N[C@@H](CC(=O)O)C(=O)N[C@@H](CCCNC(=N)N)C(=O)N(C)[C@@H](CCCC)C(=O)N[C@@H](CCCCC)C(=O)N2CCC[C@H]2C(=O)N[C@@H](C(C)C)C(=O)N[C@@H](CC(=O)O)C(=O)N[C@H](C(=O)N[C@@H](CC(=O)O)C(N)=O)CSCC(=O)N[C@@H](Cc2ccc3ccccc3c2)C(=O)N[C@@H](Cc2c[nH]c3ccccc23)C(=O)N[C@@H](CC(=O)O)C1=O [compound 1243] ({CH2CO}-[2Nal]WD[NHexGly]Y[Nle]DR[NMeNle][Ahp(2)]PVDCD-NH2; thioether N-14)		IC50 (cell-based binding high-content assay, mVISTA, the 15th table): 0.0201 µM

Further lines, with some results ahead:

IC50	Compound	further results
0.0203 µM	CCCCCCN1CC(=O)N[C@@H](Cc2ccc(O)cc2)C(=O)N[C@@H](CCCCC)C(=O)N[C@@H](CC(N)=O)C(=O)N[C@@H](CCCNC(=N)N)C(=O)N(C)[C@@H](CCCC)C(=O)N[C@@H](CCCCC)C(=O)N2CCC[C@H]2C(=O)N[C@@H](C(C)C)C(=O)N[C@@H](C(C)C)C(=O)N[C@H](C(=O)NC(CO)C(=O)O)CSCC(=O)N[C@@H](Cc2ccc(F)cc2F)C(=O)N[C@@H](Cc2c[nH]c3ccccc23)C(=O)N[C@@H](CC(=O)O)C1=O (stereo partly shown) [compound 1221] ({CH2CO}-[Phe(2,4-F2)]WD[NHexGly]Y[Ahp(2)]NR[NMeNle][Ahp(2)]PVVC[ξS]-OH; thioether N-14)	
0.0236 µM	CCCCCCN1CC(=O)N[C@@H](Cc2ccc(O)cc2)C(=O)N[C@@H](CCCC)C(=O)N[C@@H](CC(N)=O)C(=O)N[C@@H](CCCNC(=N)N)C(=O)N[C@@H](CC(C)C)C(=O)N[C@@H](C2CC2)C(=O)N2CCC[C@H]2C(=O)N[C@@H](C(C)C)C(=O)N[C@@H](CC(=O)O)C(=O)N[C@H](C(=O)NCC(=O)O)CSCC(=O)N[C@@H](Cc2ccc3ccccc3c2)C(=O)N[C@@H](Cc2c[nH]c3ccccc23)C(=O)N[C@@H](CC(=O)O)C1=O [compound 1182] ({CH2CO}-[2Nal]WD[NHexGly]Y[Nle]NRL[Gly(cPr)]PVDCG-OH; thioether N-14)	
0.0209 µM	CCCCCCN1CC(=O)N[C@@H](Cc2ccc(O)cc2)C(=O)N[C@@H](CC(C)C)C(=O)N[C@@H](CC(N)=O)C(=O)N[C@@H](CCCNC(=N)N)C(=O)N[C@@H](CC(C)C)C(=O)N[C@@H](CCCCC)C(=O)N2CCC[C@H]2C(=O)N[C@@H](C(C)C)C(=O)N[C@@H](C(C)C)C(=O)N[C@H](C(=O)NCCOCCOCC(=O)N[C@@H](CC(=O)NCCOCCOCC(=O)NCCCCCCCCCCC(=O)O)C(=O)O)CSCC(=O)N[C@@H](Cc2ccccc2)C(=O)N[C@@H](Cc2ccc(O)cc2)C(=O)N[C@@H](CC(=O)O)C1=O [Example 2201] ({CH2CO}-FYD[NHexGly]YLNRL[Ahp(2)]PVVC[AEEA][βAsp][AEEA][Aun]-OH; thioether N-14)	
